From patent US3974184A, “Microbial production of certain isoflavones” (Zaidan Hojin Biseibutsu Kagaku Kenkyu Kai, priority 1973, dated 1976) come the findings set out here.

Where two headings read alike, the source gives them in different places.

One data set deals with T1, dopamin-β-hydroxylase (Bos taurus, UniProt P15101).
T1 sequence (P15101 1-610): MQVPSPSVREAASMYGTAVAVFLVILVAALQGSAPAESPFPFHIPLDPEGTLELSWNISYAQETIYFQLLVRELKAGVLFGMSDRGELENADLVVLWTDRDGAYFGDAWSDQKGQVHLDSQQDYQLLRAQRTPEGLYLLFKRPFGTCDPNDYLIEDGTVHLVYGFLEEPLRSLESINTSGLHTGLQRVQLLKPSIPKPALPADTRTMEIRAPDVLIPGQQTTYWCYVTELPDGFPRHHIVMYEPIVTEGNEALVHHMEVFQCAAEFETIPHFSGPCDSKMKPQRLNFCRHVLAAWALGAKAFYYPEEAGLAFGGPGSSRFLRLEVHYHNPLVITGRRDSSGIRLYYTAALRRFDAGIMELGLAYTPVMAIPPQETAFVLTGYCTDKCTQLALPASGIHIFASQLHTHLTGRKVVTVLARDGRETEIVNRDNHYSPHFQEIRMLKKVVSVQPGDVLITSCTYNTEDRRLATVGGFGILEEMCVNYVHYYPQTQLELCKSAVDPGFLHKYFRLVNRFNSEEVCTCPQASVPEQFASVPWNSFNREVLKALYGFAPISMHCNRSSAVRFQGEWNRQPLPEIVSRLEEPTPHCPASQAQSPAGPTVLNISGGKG
Description: Inhibition of dopamin-β-hydroxylase. In kind it is biochemical. Particulars: at 100 .nu./cc.

Another data set concerns rats. The data set is described as follows: Toxicity in rats, administration into the abdominal cavity. It counts as in vivo. Particulars: 200 mg./kg., abdominal cavity of rats, 25% aqueous dimethyl sulfoxide. An excerpt:
Now the compounds (I), (II) and (III) will be described with respect to their biological properties.

Another data set in a line: Solubility. It counts as physicochemical. An excerpt: Now the extractive purification of the compounds (I), (II) and (III) will be described. […] These compounds are extracted from the culture filtrate under acidic conditions with butanol, butyl acetate, etc. or also from the fungus solid body (mycelium) with methanol, acetone, etc. The filtrate from the mycelial extract is concentrated by distillation under diminished pressure and the concentrated liquid, after having been adjusted to be acidic, is subjected to an extraction operation with butyl acetate or butanol. The thusly extracted liquid is mixed with the solution of butyl acetate or butanol separately extracted from the culture liquid, and then concentrated to dryness under diminished pressure.

The target in data set [1] is T2, catechol-O-methyl transferase (COMT) (Rattus norvegicus, UniProt P22734).
T2 sequence (P22734 1-221 isoform P22734-2): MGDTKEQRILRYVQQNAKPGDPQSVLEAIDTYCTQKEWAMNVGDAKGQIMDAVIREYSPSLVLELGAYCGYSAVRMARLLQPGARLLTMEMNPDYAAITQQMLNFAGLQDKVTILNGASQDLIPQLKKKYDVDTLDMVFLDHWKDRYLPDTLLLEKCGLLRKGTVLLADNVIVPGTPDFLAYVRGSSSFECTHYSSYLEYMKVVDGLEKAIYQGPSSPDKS
The data set is described as follows: Inhibition of catechol-O-methyl transferase (formation of tritium metanephrine). It counts as biochemical.
Description: The compounds (I), (II) and (III) can be determined by measuring inhibition of COMT. The activity of COMT is measured in accordance with the method reported by B. Nikodejevic et al. (Ref. "The Journal of Pharmacology and Experimental Therapeutics", Vol. 174, pp. 83-93, by B. Nikodejevic et al., 1970). 0.5 cc total volume of reaction liquid is prepared from 0.125 cc of water, 0.05 cc of 0.1 mole phosphate buffer solution (pH 8.0), 0.1 cc of 0.1 mole magnesium chloride solution, 0.05 cc. of 0.05 mole adrenaline solution, 0.075 cc of 0.5 millimole tritium-8-adenosyl methionine aqueous solution (2.2 × 10^5 cpm), 0.05 cc of sample solution and 0.05 cc of enzyme solution. These solutions are mixed together at 0° C. and, after reacting for 20 minutes at 37° C., 1 cc of 0.5 mole boric acid buffer solution (pH 10.0) is added to stop the reaction. Then, tritium metanephrine (^3 H-metanephrine) wherein the meta-hydroxyl group has been methylated is extracted with a solvent mixture such as toluene-isoamyl alcohol (3:2). A quantity of solvent portion is then sampled and its radioactivity is measured by use of a liquid scintillation counter. The thusly obtained measurement of radioactivity tells the quantity of formed metanephrine, which in turn permits one to determine the inhibition.

[2] abbreviates: isolated compounds, read-out: concentration inhibiting the activity of COMT by 50% (converted).
The mark [3] stands for this setting: powders from silica gel fractions, Example 1, read-out: concentration showing 50% inhibition against COMT (converted).

With `COc1ccc(-c2coc3cc(O)c(OC)c(O)c3c2=O)cc1O` [Compound (I), 3',5,7-trihydroxy-4',6-dimethoxy-isoflavone], the “inhibiting action against dopamin-β-hydroxylase” value (“inhibiting action” below) on dopamin-β-hydroxylase is “no inhibiting action”. The toxicity result in the data set with rats is listed as “no toxicity”. Also, in “Solubility”, the “solubility in alkaline water, methanol, ethanol and acetone” value (“solubility in alkaline water, methanol” for short) is given as “soluble”; the “solubility in butanol, ethyl acetate and butyl acetate” value (“solubility in butanol” for short) is “slightly soluble”.

Take `COc1ccc(-c2coc3c(OC)c(O)cc(O)c3c2=O)cc1O` [Compound (II), 3',5,7-trihydroxy-4',8-dimethoxy-isoflavone]: in data set [1] (setting [2]), the IC50 was 15.1 µM. In addition, the IC50 in data set [1] (setting [3]) was 236 µM. Besides, on dopamin-β-hydroxylase, the “inhibiting action” value is listed as “no inhibiting action”. In addition, the toxicity entry in the data set with rats is listed as “no toxicity”. In addition, in “Solubility”, the “solubility in alkaline water, methanol” value is on record as “soluble”; the “solubility in butanol” value was “slightly soluble”.

Regarding `COc1ccc(-c2coc3c(OC)c(O)c(OC)cc3c2=O)cc1O` [Compound (III), 3',7-dihydroxy-4',6,8-trimethoxy-isoflavone], the “selectivity for COMT against the other enzymes” value in data set [1] (in words, other enzymes: tyrosine hydroxylase, dopamin-β-hydroxylase, DOPA decarboxylase, histidine decarboxylase) is “inhibiting action only against COMT and not against the other enzymes”. Also, the IC50 in data set [1] (setting [2]) is 0.581 µM. In addition, the IC50 in data set [1] (setting [3]) is 14.5 µM. Further, the “inhibiting action” value against dopamin-β-hydroxylase is recorded as “no inhibiting action”. Further, the toxicity result in the data set with rats was “no toxicity”. For the same compound, in the data set “Solubility”, the “solubility in alkaline water, methanol” value is on record as “soluble”; the “solubility in butanol” value is recorded as “slightly soluble”.
